The data set deals with CCRIS mutagenicity, Ames/micronucleus/aberration tests. Description: CCRIS mutagenicity studies. The source says:
The CCRIS database contains chemical records with carcinogenicity, mutagenicity, tumor promotion, and tumor inhibition test results. It was developed by the National Cancer Institute (NCI). Data are derived from studies cited in primary journals, current awareness tools, NCI reports, and other sources. Test results have been reviewed by experts in carcinogenesis and mutagenesis.
CCRIS provides historical information from the years 1985 - 2011. It is no longer updated.
This is an archive assay for CCRIS mutagenicity studies.

[1] abbreviates: Test System: AMES SALMONELLA TYPHIMURIUM, Strain/Indicator: TA98, Metabolic Activation: NONE, Method: PREINCUBATION
Where [2] appears, read: Test System: AMES SALMONELLA TYPHIMURIUM, Strain/Indicator: TA100, Metabolic Activation: NONE, Method: PREINCUBATION

Among the data in PubChem BioAssay AID1259407 (Chemical Carcinogenesis Research Information System (CCRIS), 2018) are mutagenic call values, retold here.

Calls of active or inactive are those of the source. How the calls were made is not given here.

As for `O[C@H]1C=Cc2c(ccc3nc4ccc5ccccc5c4cc23)[C@@H]1O`, the mutagenic call (Test System: AMES SALMONELLA TYPHIMURIUM, Strain/Indicator: TA98, Metabolic Activation: GUINEA PIG, LIVER, S-9, 3-METHYLCHOLANTHRENE, Method: STANDARD PLATE) was “inactive; negative”; the mutagenic call (Test System: AMES SALMONELLA TYPHIMURIUM, Strain/Indicator: TA100, Metabolic Activation: GUINEA PIG, LIVER, S-9, 3-METHYLCHOLANTHRENE, Method: STANDARD PLATE) is “active; positive”; the mutagenic call (Test System: CHINESE HAMSTER V-79, Strain/Indicator: V-79/6-THIOGUANINE, Metabolic Activation: GUINEA PIG, LIVER, S-9, 3-METHYLCHOLANTHRENE) is “active; positive”.
In the case of `NC(N)=NC(=O)c1nc(Cl)c(N)nc1N`, the mutagenic call runs as follows: (Test System: AMES SALMONELLA TYPHIMURIUM, Strain/Indicator: TA97, Metabolic Activation: HAMSTER, LIVER, S-9, AROCLOR 1254 (5, 10 OR 30%), Method: PREINCUBATION) “inactive; negative”; (Test System: AMES SALMONELLA TYPHIMURIUM, Strain/Indicator: TA97, Metabolic Activation: NONE, Method: PREINCUBATION) “inactive; negative”; (Test System: AMES SALMONELLA TYPHIMURIUM, Strain/Indicator: TA97, Metabolic Activation: RAT, LIVER, S-9, AROCLOR 1254 (5, 10 OR 30%), Method: PREINCUBATION) “inactive; negative”; (Test System: AMES SALMONELLA TYPHIMURIUM, Strain/Indicator: TA98, Metabolic Activation: HAMSTER, LIVER, S-9, AROCLOR 1254 (30%), Method: PREINCUBATION) “inactive; negative”; under setting [1], “inactive; negative”; (Test System: AMES SALMONELLA TYPHIMURIUM, Strain/Indicator: TA98, Metabolic Activation: RAT, LIVER, S-9, AROCLOR 1254 (30%), Method: PREINCUBATION) “inactive; negative”. Further, the mutagenic call (Test System: AMES SALMONELLA TYPHIMURIUM, Strain/Indicator: TA100, Metabolic Activation: HAMSTER, LIVER, S-9, AROCLOR 1254 (30%), Method: PREINCUBATION) was “inactive; negative”; the mutagenic call under setting [2] was “inactive; negative”; the mutagenic call (Test System: AMES SALMONELLA TYPHIMURIUM, Strain/Indicator: TA100, Metabolic Activation: RAT, LIVER, S-9, AROCLOR 1254 (30%), Method: PREINCUBATION) is “inactive; negative”; the mutagenic call (Test System: AMES SALMONELLA TYPHIMURIUM, Strain/Indicator: TA1535, Metabolic Activation: HAMSTER, LIVER, S-9, AROCLOR 1254 (30%), Method: PREINCUBATION) was “inactive; negative”; the mutagenic call (Test System: AMES SALMONELLA TYPHIMURIUM, Strain/Indicator: TA1535, Metabolic Activation: NONE, Method: PREINCUBATION) was “inactive; negative”; the mutagenic call (Test System: AMES SALMONELLA TYPHIMURIUM, Strain/Indicator: TA1535, Metabolic Activation: RAT, LIVER, S-9, AROCLOR 1254 (30%), Method: PREINCUBATION) was “inactive; negative”. Further, the mutagenic call reads like this: (Test System: AMES SALMONELLA TYPHIMURIUM, Strain/Indicator: TA1537, Metabolic Activation: HAMSTER, LIVER, S-9, AROCLOR 1254 (30%), Method: PREINCUBATION) “active; positive”; (Test System: AMES SALMONELLA TYPHIMURIUM, Strain/Indicator: TA1537, Metabolic Activation: NONE, Method: PREINCUBATION) “active; positive”; (Test System: AMES SALMONELLA TYPHIMURIUM, Strain/Indicator: TA1537, Metabolic Activation: RAT, LIVER, S-9, AROCLOR 1254 (30%), Method: PREINCUBATION) “active; positive”.
For the compound `Nc1ccn([C@@H]2O[C@H](CO)[C@@H](O)C2O)c(=O)n1` (stereo not given in full), the mutagenic call is “active; positive” (End Point: IN VITRO MICRONUCLEUS, Test System: CHINESE HAMSTER V79 CELLS, Metabolic Activation: NONE); “active; positive” (End Point: IN VITRO MICRONUCLEUS, Test System: V79 CELLS, Metabolic Activation: NONE); “active; positive (structural changes) (effects significant without chm)” (End Point: In vitro chromosomal aberrations, Test System: Human lymphocytes, Metabolic Activation: None); “active; positive (p<0.001)” (End Point: In vitro micronucleus, Test System: Human lymphoblastoid TK6 cells, Metabolic Activation: None); “inactive; negative” (Test System: AMES SALMONELLA TYPHIMURIUM, Strain/Indicator: TA98, Metabolic Activation: NONE, Method: STANDARD PLATE); “inactive; negative” (Test System: AMES SALMONELLA TYPHIMURIUM, Strain/Indicator: TA98, Metabolic Activation: S-9, Method: STANDARD PLATE). For the same compound, the mutagenic call is “inactive; negative” (Test System: AMES SALMONELLA TYPHIMURIUM, Strain/Indicator: TA100, Metabolic Activation: NONE, Method: STANDARD PLATE); “inactive; negative” (Test System: AMES SALMONELLA TYPHIMURIUM, Strain/Indicator: TA100, Metabolic Activation: S-9, Method: STANDARD PLATE); “inactive; negative” (Test System: AMES SALMONELLA TYPHIMURIUM, Strain/Indicator: TA102, Metabolic Activation: NONE, Method: STANDARD PLATE); “inactive; negative” (Test System: AMES SALMONELLA TYPHIMURIUM, Strain/Indicator: TA1537, Metabolic Activation: NONE, Method: STANDARD PLATE); “inactive; negative” (Test System: AMES SALMONELLA TYPHIMURIUM, Strain/Indicator: TA1537, Metabolic Activation: S-9, Method: STANDARD PLATE); “inactive; negative” (Test System: CHINESE HAMSTER V-79, Strain/Indicator: V-79 (HGPRT)/6-THIOGUANINE, Metabolic Activation: NONE). In addition, the mutagenic call was “active; positive” (Test System: CHINESE HAMSTER V-79, Strain/Indicator: V-79/6-THIOGUANINE, Metabolic Activation: NONE, Method: SUSPENSION/PLATE); “inactive; negative” (Test System: CHINESE HAMSTER V-79, Strain/Indicator: V-79/6-THIOGUANINE, Metabolic Activation: RAT, LIVER, HEPATOCYTES, Method: SUSPENSION/PLATE); “active; positive” (Test System: CHINESE HAMSTER V-79, Strain/Indicator: V-79/8-AZAGUANINE, Metabolic Activation: NONE, Method: STANDARD PLATE); “active; positive” (Test System: E. COLI, Strain/Indicator: WP2 (HCR), Metabolic Activation: NONE, Method: STANDARD PLATE); “active; positive” (Test System: E. COLI, Strain/Indicator: WP2 (HCR), Metabolic Activation: S-9, Method: STANDARD PLATE); “active; positive” (Test System: MOUSE LYMPHOMA, Strain/Indicator: L5178Y (TK+/TK-), Metabolic Activation: NONE, Method: MICROWELL). The mutagenic call is, setting by setting: (Test System: MOUSE LYMPHOMA, Strain/Indicator: L5178Y (TK+/TK-), Metabolic Activation: NONE, Method: SUSPENSION/PLATE) “active; positive”; (Test System: MOUSE LYMPHOMA, Strain/Indicator: L5178Y (TK+/TK-), Metabolic Activation: S-9, Method: MICROWELL) “active; positive”.
Regarding `Nc1ccc(Cc2ccc(NO)c(Cl)c2)cc1Cl`, the mutagenic call under setting [1] was “active; positive” and the mutagenic call under setting [2] was “active; positive”.
